Data as given in ChEMBL document CHEMBL3124797, “Copper complexes with phosphonium containing hydrazone ligand: topoisomerase inhibition and cytotoxicity study” (Eur J Med Chem, 2014).

Columns and labels:
MRC5 [1] = experiment: Cytotoxicity against human MRC5 cells after 72 hrs by MTT assay; assay type: cell-based; details: MRC5, 72 h
PC-3 = experiment: Cytotoxicity against human PC3 cells after 72 hrs by MTT assay; assay type: functional, cell-based; details: PC-3, 72 h
A549 = experiment: Cytotoxicity against human A549 cells after 72 hrs by MTT assay; assay type: functional, cell-based; details: A549, 72 h
MRC5 [2] = experiment: Selectivity index, ratio of IC50 for human MRC5 cells to IC50 for human PC3 cells; assay type: functional

Compound | IC50 (MRC5 [1]) [µM] | IC50 (PC-3) [µM] | IC50 (A549) [µM] | Ratio IC50 (MRC5 [2])
O.O=C(N/N=C/c1cc(C[P+](c2ccccc2)(c2ccccc2)c2ccccc2)ccc1O)c1ccccc1.[Cl-] | 12.2 | 14.4 | > 30 | 0.85
O=Cc1cc(C[P+](c2ccccc2)(c2ccccc2)c2ccccc2)ccc1O | > 30 | > 30 | > 30 | 
